Patent US8455534B2, “Estrogen receptor modulators and uses thereof” (Aragon Pharmaceuticals, Inc., priority 2010, dated 2013)

Tests used:
[1] = test system: MCF-7 cells; assay: Breast Cancer Cell Viability Assay (MCF-7, CellTiter-Glo); type: cell-based; conditions: 5 days' compound exposure; for IC50: Homo sapiens, MCF7, 120 h
Procedure: MCF-7 cells were adjusted to a concentration of 20,000 cells per mL in RPMI containing 10% FBS and 20 mM HEPES. 16 microliters of the cell suspension (320 cells) was added to each well of a 384 well plate, and the cells were incubated overnight to allow the cells to adhere. The following day an eleven point, serial semilog dilution of each compound was added to the cells in 16 μL at a final concentration ranging from 0.3-0.000003 μM. After 5 days' compound exposure, 16 μL of CellTiter-GLo (Promega, Madison Wis.) was added to the cells the relative luminescence units (RLUs) of each well was determined CellTiter-Glo added to 32 μL of medium without cells was used to obtain a background value. The Percent viability of each sample was determined as follows: (RLU sample-RLU background/RLU untreated cells-RLU background)×100=% viability.

[2] = molecular target: T1, ER-α (Homo sapiens, UniProt P03372); assay: Breast Cancer Cell ER-α In Cell Western Assay (SP1); type: cell-based; conditions: MCF-7 cells, SP1 antibody, 4 or 24 hr post compound addition; for Emax: MCF7, read-out: ER-α In Cell Western Assay (SP1) Max Response; for DC50: read-out: ER-α In Cell Western Assay (SP1) IC50
T1 sequence (P03372 1-595): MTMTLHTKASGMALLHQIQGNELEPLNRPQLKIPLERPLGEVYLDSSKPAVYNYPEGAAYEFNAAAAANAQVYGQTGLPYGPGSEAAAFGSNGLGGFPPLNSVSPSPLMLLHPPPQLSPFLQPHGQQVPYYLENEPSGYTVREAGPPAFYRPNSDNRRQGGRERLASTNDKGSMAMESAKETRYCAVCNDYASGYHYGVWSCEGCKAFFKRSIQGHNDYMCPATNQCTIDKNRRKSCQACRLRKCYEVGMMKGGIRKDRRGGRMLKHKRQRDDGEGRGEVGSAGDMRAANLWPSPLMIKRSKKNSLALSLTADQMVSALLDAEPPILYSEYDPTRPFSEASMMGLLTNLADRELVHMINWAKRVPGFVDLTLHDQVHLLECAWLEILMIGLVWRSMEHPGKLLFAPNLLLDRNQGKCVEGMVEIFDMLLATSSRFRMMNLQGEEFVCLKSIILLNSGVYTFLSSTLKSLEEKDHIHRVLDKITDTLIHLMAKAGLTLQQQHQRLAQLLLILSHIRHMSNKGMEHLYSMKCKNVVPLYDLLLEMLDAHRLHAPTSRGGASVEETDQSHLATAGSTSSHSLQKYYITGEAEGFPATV
Procedure: MCF-7 cells were adjusted to a concentration of 200,000 cells per mL in RPMI containing 10% charcoal-stripped FBS and 20 mM HEPES. 16 microliters of the cell suspension (3200 cells) was added to each well of a poly-D-lysine 384 well plate, and the cells were incubated overnight to allow the cells to adhere. The following day an eleven point, serial semilog dilution of each compound was added to the cells in 16 μL at a final concentration ranging from 0.3-0.000003 μM. At 4 or 24 hr post compound addition, the cells were fixed (10% formalin in PBS) for 20 minutes. Cells were permeablized in PBS 0.1% Triton and blocked with LICOR blocking buffer (50 μL1/well, 90′). The wells were then incubated overnight at 4° C. with SP1 rabbit monoclonal Ab (Thermo Scientific) diluted 1:1000 in LICOR blocking buffer/0.1% Tween-20. Wells which were treated with blocking buffer with Tween but no antibody were used as a background control. Wells were washed with 0.1% Tween-20/PBS and then incubated in goat anti-rabbit IRDye™ 800CW (LICOR Inc.; 1:1000) and DRAQ5 DNA dye (1:2000 for 2 mM stock) diluted in LICOR blocking buffer containing 0.1% Tween-20 and 0.01% SDS for 60 minutes. Cells were washed (50 μl/well, 5′ each) in 0.1% Tween-20/PBS. Plates were scanned on a LICOR Odyssey infrared imaging system. Integrated intensities in the 800 nm channel and 700 nm channel were measured to determine levels of ER and DNA respectively. Percent ER levels were determined as follows: (Integrated intensity 800 nm sample/integrated intensity 700 nm sample)/(Integrated intensity 800 nm untreated cells/integrated intensity 700 nm untreated cells)×100=% ER levels.

| Compound | MCF7 Viability Assay Max Response [1] | IC50 [1] | Emax [2] | DC50 [2] |
| --- | --- | --- | --- | --- |
| [2H]C([2H])([2H])C([2H])([2H])/C(=C(/c1ccc(/C=C/C(=O)O)cc1)c1ccc2[nH]ncc2c1)c1ccc(F)cc1Cl [Compound 136, (E)-3-(4-((E)-2-(2-Chloro-4-fluorophenyl)-3,3,4,4,4-pentadeutero-1-(1H-indazol-5-yl)but-1-en-1-yl)phenyl)acrylic acid] | ++ (++ = a single % value ≧ 40%) | ≤ 100 nM | – | – |
| COC/C(=C(/c1ccc(/C=C/C(=O)O)cc1)c1ccc2[nH]ncc2c1)c1ccccc1 [Compound 48, (E)-3-(4-((Z)-1-(1H-Indazol-5-yl)-3-methoxy-2-phenylprop-1-en-1-yl)phenyl)acrylic acid] | ++ (++ = a single % value ≧ 40%) | ≤ 100 nM | ≥ 40% | ≤ 100 nM |
| CC/C(=C(\c1ccc2[nH]ncc2c1)c1ccc(/C=C/C(=O)O)cc1OC)c1ccccc1 [Compound 108, (E)-3-(4-((Z)-1-(1H-Indazol-5-yl)-2-phenylbut-1-en-1-yl)-3-methoxyphenyl)acrylic acid] | ++ (++ = a single % value ≧ 40%) | ≤ 100 nM | ≥ 40% | – |
| CC/C(=C(/c1ccc(/C=C/C(=O)O)cc1)c1ccc2[nH]ncc2c1)c1ccccc1 [Compound 2, (E)-3-(4-((E)-1-(1H-Indazol-5-yl)-2-phenylbut-1-en-1-yl)phenyl)acrylic acid] | ++ (++ = a single % value ≧ 40%) | ≤ 100 nM | ≥ 40% | – |
| CC/C(=C(/c1ccc(/C=C/C(=O)O)cc1)c1ccc2[nH]nc(C)c2c1)c1ccccc1 [Compound 39, (E)-3-(4-((E)-1-(3-Methyl-1H-indazol-5-yl)-2-phenylbut-1-en-1-yl)phenyl)acrylic acid] | ++ (++ = a single % value ≧ 40%) | > 100 nM | ≥ 40% | > 100 nM |
| O=C(O)/C=C/c1ccc(/C(=C(\c2ccccc2)C2CCCCC2)c2ccc3[nH]ncc3c2)cc1 [Compound 54, (E)-3-(4-((E)-2-Cyclohexyl-1-(1H-indazol-5-yl)-2-phenylvinyl)phenyl)acrylic acid] | ++ (++ = a single % value ≧ 40%) | ≤ 100 nM | ≥ 40% | ≤ 100 nM |
| CC/C(=C(/c1ccc(/C=C/C(=O)O)cc1)c1ccc2[nH]ncc2c1)c1ccc(Cl)cc1C#N [Compound 137, (E)-3-(4-((E)-2-(4-Chloro-2-cyanophenyl)-1-(1H-indazol-5-yl)but-1-en-1-yl)phenyl)acrylic acid] | ++ (++ = a single % value ≧ 40%) | ≤ 100 nM | ≥ 40% | ≤ 100 nM |
| CC/C(=C(/c1ccc(/C=C/C(=O)O)cc1)c1ccc2[nH]ncc2c1)c1ccc(Cl)cc1C(F)(F)F [Compound 114, (E)-3-(4-((E)-2-(4-Chloro-2-(trifluoromethyl)phenyl)-1-(1H-indazol-5-yl)but-1-en-1-yl)phenyl)acrylic acid] | ++ (++ = a single % value ≧ 40%) | ≤ 100 nM | ≥ 40% | ≤ 100 nM |
| CC/C(=C(/c1ccc(/C=C/C(=O)O)cc1)c1ccc2[nH]ncc2c1)c1cccc(CO)c1 [Compound 6, (E)-3-(4-((E)-2-(3-(Hydroxymethyl)phenyl)-1-(1H-indazol-5-yl)but-1-en-1-yl)phenyl)acrylic acid] | ++ (++ = a single % value ≧ 40%) | > 100 nM | ≥ 40% | ≤ 100 nM |
| CC/C(=C(/c1ccc(/C=C/C(=O)O)cc1)c1ccc2[nH]ncc2c1)c1ccc(OC)cc1C#N [Compound 144, (E)-3-(4-((E)-2-(2-Cyano-4-methoxyphenyl)-1-(1H-indazol-5-yl)but-1-en-1-yl)phenyl)acrylic acid] | ++ (++ = a single % value ≧ 40%) | ≤ 100 nM | ≥ 40% | ≤ 100 nM |
| CC/C(=C(/c1ccc(/C=C/C(=O)O)cc1)c1ccc2[nH]ncc2c1)c1cccc(C#N)c1 [Compound 44, (E)-3-(4-((E)-2-(3-Cyanophenyl)-1-(1H-indazol-5-yl)but-1-en-1-yl)phenyl)acrylic acid] | ++ (++ = a single % value ≧ 40%) | ≤ 100 nM | ≥ 40% | – |
| O=C(O)/C=C/c1ccc(/C(=C(\c2ccccc2)C2CCCC2)c2ccc3[nH]ncc3c2)cc1 [Compound 53, (E)-3-(4-((E)-2-Cyclopentyl-1-(1H-indazol-5-yl)-2-phenylvinyl)phenyl)acrylic acid] | ++ (++ = a single % value ≧ 40%) | ≤ 100 nM | ≥ 40% | ≤ 100 nM |
| CC/C(=C(/c1ccc(/C=C/C(=O)O)cc1)c1cc2cn[nH]c2cc1C)c1ccccc1 [Compound 38, (E)-3-(4-((E)-1-(6-Methyl-1H-indazol-5-yl)-2-phenylbut-1-en-1-yl)phenyl)acrylic acid] | ++ (++ = a single % value ≧ 40%) | > 100 nM | ≥ 40% | > 100 nM |
| CC/C(=C(/c1ccc(/C=C/C(=O)O)cc1)c1ccc2[nH]ncc2c1)c1ccccc1F [Compound 16, (E)-3-(4-((E)-2-(2-Fluorophenyl)-1-(1H-indazol-5-yl)but-1-en-1-yl)phenyl)acrylic acid] | ++ (++ = a single % value ≧ 40%) | ≤ 100 nM | ≥ 40% | ≤ 100 nM |
| [2H]C([2H])([2H])C/C(=C(/c1ccc(/C=C/C(=O)O)cc1)c1ccc2[nH]ncc2c1)c1ccccc1 [Compound 28, (E)-3-(4-((E)-4,4,4-Trideutero-1-(1H-indazol-5-yl)-2-phenylbut-1-en-1-yl)phenyl)acrylic acid] | ++ (++ = a single % value ≧ 40%) | ≤ 100 nM | ≥ 40% | – |
| CC/C(=C(/c1ccc(/C=C/C(=O)O)c(Cl)c1)c1ccc2[nH]ncc2c1)c1ccccc1 [Compound 102, (E)-3-(4-((Z)-1-(1H-Indazol-5-yl)-2-phenylbut-1-en-1-yl)-2-chlorophenyl)acrylic acid] | ++ (++ = a single % value ≧ 40%) | ≤ 100 nM | ≥ 40% | ≤ 100 nM |
| CCOC(=O)/C=C/c1ccc(/C(=C(/CC)c2ccc(OC)cc2)c2ccc3[nH]ncc3c2)cc1 [Compound 92, (E)-Ethyl 3-(4-((E)-1-(1H-Indazol-5-yl)-2-(4-methoxyphenyl)but-1-en-1-yl)phenyl)acrylate] | + (+ = a single % value < 40%) | ≤ 100 nM | – | – |
| CC/C(=C(/c1ccc(/C=C/C(=O)O)cc1)c1ccc2[nH]ncc2c1)c1ccc(F)cc1Cl [Compound 111, (E)-3-(4-((E)-2-(2-Chloro-4-fluorophenyl)-1-(1H-indazol-5-yl)but-1-en-1-yl)phenyl)acrylic acid] | ++ (++ = a single % value ≧ 40%) | ≤ 100 nM | – | – |
| CCOC(=O)/C=C/c1ccc(/C(=C(/CC)c2ccccc2OC)c2ccc3[nH]ncc3c2)cc1 [Compound 91, (E)-ethyl 3-(4-((E)-1-(1H-indazol-5-yl)-2-(2-methoxyphenyl)but-1-en-1-yl)phenyl)acrylate] | + (+ = a single % value < 40%) | ≤ 100 nM | – | – |
